Measurements: the supplement of paper PMC10307832

Assays:
Experiment in all cases: relative viability (nuclei count vs DMSO), 5 days (fraction); higher = more cells survive
201T = test system: 201T
How it was run: (§1)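 Relative viability equals treated-well nuclei counts divided by vehicle-well nuclei counts. Counts came from 4× images of lung cancer cell lines grown in 1536-well plates for 5 days after pin-tool dosing on the day after seeding. Dosing used one drug alone or a fixed anchor-drug dose plus five library-drug doses (not always all listed) in √10 steps, and values are medians of duplicate plates.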

BEN = test system: BEN
How it was run: as §1

COR-L 105 = test system: COR-L 105
How it was run: as §1

EMC-BAC-2 = test system: EMC-BAC-2
How it was run: as §1

H3255 = test system: H3255
How it was run: as §1

HARA = test system: HARA
How it was run: as §1

HCC-78 = test system: HCC-78
How it was run: as §1

HOP-62 = test system: HOP-62
How it was run: as §1

LC-2-ad = test system: LC-2-ad
How it was run: as §1

LOU-NH91 = test system: LOU-NH91
How it was run: as §1

LU99A = test system: LU99A
How it was run: as §1

LXF-289 = test system: LXF-289
How it was run: as §1

NCI-H1395 = test system: NCI-H1395
How it was run: as §1

NCI-H1993 = test system: NCI-H1993
How it was run: as §1

NCI-H2087 = test system: NCI-H2087
How it was run: as §1

NCI-H2126 = test system: NCI-H2126
How it was run: as §1

NCI-H2170 = test system: NCI-H2170
How it was run: as §1

NCI-H650 = test system: NCI-H650
How it was run: as §1

RERF-LC-KJ = test system: RERF-LC-KJ
How it was run: as §1

SK-MES-1 = test system: SK-MES-1
How it was run: as §1

SW 900 = test system: SW 900
How it was run: as §1

UMC-11 = test system: UMC-11
How it was run: as §1

Cc1cn(-c2cc(NC(=O)c3ccc(C)c(Nc4nccc(-c5cccnc5)n4)c3)cc(C(F)(F)F)c2)cn1 [Nilotinib] + CC(=O)Nc1cccc(-n2c(=O)n(C3CC3)c(=O)c3c(Nc4ccc(I)cc4F)n(C)c(=O)c(C)c32)c1 [Trametinib] (partner 0.02 µM)
relative viability (201T; first compound 0.001 µM): 0.709
relative viability (201T; first compound 0.003162 µM): 0.749
relative viability (201T; first compound 0.01 µM): 0.739
relative viability (201T; first compound 0.03162 µM): 0.717
relative viability (201T; first compound 0.1 µM): 0.728
relative viability (BEN; first compound 0.001 µM): 0.98
relative viability (BEN; first compound 0.003162 µM): 0.931
relative viability (BEN; first compound 0.01 µM): 1.01
relative viability (BEN; first compound 0.03162 µM): 0.954
relative viability (BEN; first compound 0.1 µM): 1.15
relative viability (COR-L 105; first compound 0.001 µM): 0.439
relative viability (COR-L 105; first compound 0.003162 µM): 0.475
relative viability (COR-L 105; first compound 0.01 µM): 0.533
relative viability (COR-L 105; first compound 0.03162 µM): 0.396
relative viability (COR-L 105; first compound 0.1 µM): 0.443
relative viability (EMC-BAC-2; first compound 0.001 µM): 0.874
relative viability (EMC-BAC-2; first compound 0.003162 µM): 0.697
relative viability (EMC-BAC-2; first compound 0.01 µM): 0.849
relative viability (EMC-BAC-2; first compound 0.03162 µM): 0.604
relative viability (EMC-BAC-2; first compound 0.1 µM): 0.65
relative viability (H3255; first compound 0.001 µM): 0.617
relative viability (H3255; first compound 0.003162 µM): 0.582
relative viability (H3255; first compound 0.03162 µM): 0.53
relative viability (H3255; first compound 0.1 µM): 0.947
relative viability (HARA; first compound 0.001 µM): 0.43
relative viability (HARA; first compound 0.003162 µM): 0.468
relative viability (HARA; first compound 0.01 µM): 0.522
relative viability (HARA; first compound 0.03162 µM): 0.402
relative viability (HARA; first compound 0.1 µM): 0.289
relative viability (HCC-78; first compound 0.001 µM): 0.754
relative viability (HCC-78; first compound 0.003162 µM): 0.597
relative viability (HCC-78; first compound 0.01 µM): 0.956
relative viability (HCC-78; first compound 0.03162 µM): 0.649
relative viability (HCC-78; first compound 0.1 µM): 0.863
relative viability (HOP-62; first compound 0.001 µM): 0.387
relative viability (HOP-62; first compound 0.003162 µM): 0.364
relative viability (HOP-62; first compound 0.1 µM): 0.277
relative viability (LC-2-ad; first compound 0.001 µM): 0.876
relative viability (LC-2-ad; first compound 0.003162 µM): 1.09
relative viability (LC-2-ad; first compound 0.01 µM): 0.967
relative viability (LC-2-ad; first compound 0.03162 µM): 0.596
relative viability (LC-2-ad; first compound 0.1 µM): 0.517
relative viability (LOU-NH91; first compound 0.001 µM): 0.799
relative viability (LOU-NH91; first compound 0.003162 µM): 0.818
relative viability (LOU-NH91; first compound 0.01 µM): 0.846
relative viability (LOU-NH91; first compound 0.03162 µM): 0.77
relative viability (LOU-NH91; first compound 0.1 µM): 0.765
relative viability (LU99A; first compound 0.001 µM): 0.31
relative viability (LU99A; first compound 0.003162 µM): 0.328
relative viability (LU99A; first compound 0.01 µM): 0.332
relative viability (LU99A; first compound 0.03162 µM): 0.296
relative viability (LU99A; first compound 0.1 µM): 0.242
relative viability (LXF-289; first compound 0.001 µM): 0.686
relative viability (LXF-289; first compound 0.003162 µM): 0.699
relative viability (LXF-289; first compound 0.01 µM): 0.701
relative viability (LXF-289; first compound 0.03162 µM): 0.577
relative viability (LXF-289; first compound 0.1 µM): 0.466
relative viability (NCI-H1395; first compound 0.001 µM): 0.988
relative viability (NCI-H1395; first compound 0.01 µM): 1.19
relative viability (NCI-H1395; first compound 0.03162 µM): 0.96
relative viability (NCI-H1395; first compound 0.1 µM): 0.9
relative viability (NCI-H1993; first compound 0.001 µM): 0.47
relative viability (NCI-H1993; first compound 0.003162 µM): 0.522
relative viability (NCI-H1993; first compound 0.01 µM): 0.477
relative viability (NCI-H1993; first compound 0.03162 µM): 0.507
relative viability (NCI-H1993; first compound 0.1 µM): 0.494
relative viability (NCI-H2087; first compound 0.001 µM): 0.189
relative viability (NCI-H2087; first compound 0.003162 µM): 0.322
relative viability (NCI-H2087; first compound 0.01 µM): 0.153
relative viability (NCI-H2087; first compound 0.03162 µM): 0.143
relative viability (NCI-H2087; first compound 0.1 µM): 0.126
relative viability (NCI-H2126; first compound 0.001 µM): 0.521
relative viability (NCI-H2126; first compound 0.003162 µM): 0.647
relative viability (NCI-H2126; first compound 0.01 µM): 0.647
relative viability (NCI-H2126; first compound 0.03162 µM): 0.551
relative viability (NCI-H2126; first compound 0.1 µM): 0.554
relative viability (NCI-H2170; first compound 0.001 µM): 0.816
relative viability (NCI-H2170; first compound 0.003162 µM): 1.23
relative viability (NCI-H2170; first compound 0.01 µM): 1.1
relative viability (NCI-H2170; first compound 0.03162 µM): 0.842
relative viability (NCI-H2170; first compound 0.1 µM): 0.868
relative viability (NCI-H650; first compound 0.001 µM): 0.952
relative viability (NCI-H650; first compound 0.003162 µM): 0.915
relative viability (NCI-H650; first compound 0.01 µM): 1.03
relative viability (NCI-H650; first compound 0.03162 µM): 0.974
relative viability (NCI-H650; first compound 0.1 µM): 0.9
relative viability (RERF-LC-KJ; first compound 0.001 µM): 0.79
relative viability (RERF-LC-KJ; first compound 0.003162 µM): 0.985
relative viability (RERF-LC-KJ; first compound 0.01 µM): 0.985
relative viability (RERF-LC-KJ; first compound 0.03162 µM): 0.764
relative viability (RERF-LC-KJ; first compound 0.1 µM): 0.811
relative viability (SK-MES-1; first compound 0.001 µM): 0.581
relative viability (SK-MES-1; first compound 0.003162 µM): 0.482
relative viability (SK-MES-1; first compound 0.01 µM): 0.492
relative viability (SK-MES-1; first compound 0.03162 µM): 0.437
relative viability (SK-MES-1; first compound 0.1 µM): 0.339
relative viability (SW 900; first compound 0.003162 µM): 0.973
relative viability (SW 900; first compound 0.03162 µM): 0.76
relative viability (SW 900; first compound 0.1 µM): 0.613
relative viability (UMC-11; first compound 0.001 µM): 0.635
relative viability (UMC-11; first compound 0.003162 µM): 0.801
relative viability (UMC-11; first compound 0.01 µM): 0.742
relative viability (UMC-11; first compound 0.03162 µM): 0.446
relative viability (UMC-11; first compound 0.1 µM): 0.317
